Experimental data reported in patent publication US8039496B2, “Therapeutic compounds” (Allergan, Inc., priority 2007, dated 2011).
Read-outs that look alike come from different tables or passages of the source.

Columns and labels:
hEP2 [1] = target: T1, hEP2 (Homo sapiens, UniProt P43116); assay: hEP2 flipr functional assay; format: cell-based
Text: (§1) U.S. patent application Ser. No. 11/553,143, filed on Oct. 26, 2006, describes the methods used to obtain the in vitro data in the table below.

hEP2 [2] = target: T1, hEP2; assay: hEP2 cAMP functional assay; format: cell-based
Text: as §1

hEP2 [3] = target: T1, hEP2; assay: hEP2 binding (Ki)
Text: as §1

hEP4 [4] = target: T2, hEP4 (Homo sapiens, UniProt P35408); assay: hEP4 flipr functional assay; format: cell-based
Text: as §1

hEP4 [5] = target: T2, hEP4; assay: hEP4 binding (Ki)
Text: as §1

[6] = the 3rd table, read-out: EP2 data flipr EC50
[7] = the 3rd table, read-out: EP2 data cAMP EC50
[8] = the 3rd table, read-out: EP2 data Ki
[9] = the 3rd table, read-out: EP4 data flipr EC50
[10] = the 3rd table, read-out: EP4 data KI
[11] = the 2nd table, read-out: hEP2 flipr EC50
[12] = the 2nd table, read-out: hEP2 cAMP EC50
[13] = the 2nd table, read-out: hEP2 Ki
[14] = the 2nd table, read-out: hEP4 flipr EC50
[15] = the 2nd table, read-out: hEP4 Ki

T2 sequence (P35408 whole entry): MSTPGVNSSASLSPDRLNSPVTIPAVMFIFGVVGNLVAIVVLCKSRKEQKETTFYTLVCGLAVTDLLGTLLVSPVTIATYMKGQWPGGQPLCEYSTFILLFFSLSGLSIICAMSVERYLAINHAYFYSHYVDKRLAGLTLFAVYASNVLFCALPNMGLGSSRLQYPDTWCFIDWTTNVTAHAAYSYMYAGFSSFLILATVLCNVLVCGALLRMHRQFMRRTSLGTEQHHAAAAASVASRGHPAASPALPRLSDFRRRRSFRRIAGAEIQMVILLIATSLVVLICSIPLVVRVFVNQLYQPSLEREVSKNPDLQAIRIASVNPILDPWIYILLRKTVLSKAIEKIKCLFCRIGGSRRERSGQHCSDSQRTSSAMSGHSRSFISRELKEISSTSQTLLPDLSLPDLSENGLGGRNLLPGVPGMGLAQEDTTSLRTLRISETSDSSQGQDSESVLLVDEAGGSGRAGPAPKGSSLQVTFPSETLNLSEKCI
T1 sequence (P43116 whole entry): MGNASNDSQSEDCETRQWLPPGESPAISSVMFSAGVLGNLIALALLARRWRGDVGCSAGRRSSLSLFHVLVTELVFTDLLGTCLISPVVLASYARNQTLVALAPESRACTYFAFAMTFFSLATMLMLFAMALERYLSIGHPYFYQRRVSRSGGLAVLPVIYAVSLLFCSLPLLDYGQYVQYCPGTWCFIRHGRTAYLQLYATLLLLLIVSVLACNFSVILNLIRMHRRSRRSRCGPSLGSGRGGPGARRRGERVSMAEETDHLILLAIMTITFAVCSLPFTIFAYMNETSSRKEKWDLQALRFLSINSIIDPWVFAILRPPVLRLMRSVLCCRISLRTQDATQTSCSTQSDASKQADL

CCc1cc(OC[C@@H]2[C@@H](CCCc3ccc(C(=O)O)s3)[C@H](Cl)C[C@H]2O)ccc1Cl [5-(3-((1R,2S,3R,5R)-5-chloro-2-((4-chloro-3-ethylphenoxy)methyl)-3-hydroxycyclopentyl)propyl)thiophene-2-carboxylic acid]
EC50 (hEP2 [1]; [6]): 31400 nM
EC50 (hEP2 [2]; [7]): 0.4 nM
Ki (hEP2 [3]; [8]): 2 nM
EC50 (hEP4 [4]; [9]): 26500 nM
Ki (hEP4 [5]; [10]): 177 nM

CCCCCCCc1ccc(OC[C@@H]2[C@@H](CCCc3ccc(C(=O)O)s3)[C@H](Cl)C[C@H]2O)cc1 [5-(3-((1R,2S,3R,5R)-5-chloro-2-((4-heptylphenoxy)methyl)-3-hydroxycyclopentyl)propyl)thiophene-2-carboxylic acid]
EC50 (hEP2 [1]; [6]): 6820 nM
EC50 (hEP2 [2]; [7]): 46 nM
Ki (hEP2 [3]; [8]): 378 nM
EC50 (hEP4 [4]; [9]): > 10000 nM
Ki (hEP4 [5]; [10]): 4520 nM

O=C(O)c1ccc(CCC[C@@H]2[C@@H](COc3ccc4c(c3)CCCC4)[C@H](O)C[C@H]2Cl)s1 [5-(3-((1R,2S,3R,5R)-5-chloro-3-hydroxy-2-((5,6,7,8-tetrahydronaphthalen-2-yloxy)methyl)cyclopentyl)propyl)thiophene-2-carboxylic acid]
EC50 (hEP2 [1]; [6]): 2490 nM
EC50 (hEP2 [2]; [7]): 12 nM
Ki (hEP2 [3]; [8]): 38 nM
EC50 (hEP4 [4]; [9]): > 10000 nM
Ki (hEP4 [5]; [10]): 800 nM

O=C(O)c1ccc(CCC[C@@H]2[C@@H](COc3ccc4ccccc4c3)[C@H](O)C[C@H]2Cl)s1 [5-(3-((1R,2S,3R,5R)-5-chloro-3-hydroxy-2-((naphthalen-2-yloxy)methyl)cyclopentyl)propyl)thiophene-2-carboxylic acid]
EC50 (hEP2 [1]; [6]): > 10000 nM
EC50 (hEP2 [2]; [7]): 3 nM
Ki (hEP2 [3]; [8]): 3 nM
EC50 (hEP4 [4]; [9]): > 10000 nM
Ki (hEP4 [5]; [10]): 227 nM

O=C(O)c1ccc(CCC[C@@H]2[C@@H](COc3cc(Cl)cc(CO)c3)CC[C@H]2Cl)s1 [5-{3-[(1R,2R,5S)-2-Chloro-5-(3-chloro-5-hydroxymethyl-phenoxymethyl)-cyclopentyl]-propyl}-thiophene-2-carboxylic acid]
EC50 (hEP2 [1]; [11]): 6750 nM
EC50 (hEP2 [2]; [12]): 5.2 nM
Ki (hEP2 [3]; [13]): 12 nM
EC50 (hEP4 [4]; [14]): > 10000 nM
Ki (hEP4 [5]; [15]): 197 nM

O=C(O)c1ccc(CCC[C@H]2C(=O)CC[C@@H]2COc2cc(Cl)cc(CO)c2)s1 [5-{3-[(1R,2S)-2-(3-Chloro-5-hydroxymethyl-phenoxymethyl)-5-oxo-cyclopentyl]-propyl}-thiophene-2-carboxylic acid]
EC50 (hEP2 [1]; [11]): 297 nM
EC50 (hEP2 [2]; [12]): 2 nM
Ki (hEP2 [3]; [13]): 39 nM
EC50 (hEP4 [4]; [14]): > 10000 nM
Ki (hEP4 [5]; [15]): 179 nM

O=C(O)c1ccc(CCC[C@@H]2[C@@H](COc3cc(Cl)cc(Cl)c3)[C@H](O)C[C@H]2F)s1 [5-{3-[(1R,2S,3R,5R)-2-(3,5-Dichloro-phenoxymethyl)-5-fluoro-3-hydroxy-cyclopentyl]-propyl}-thiophene-2-carboxylic acid]
EC50 (hEP2 [1]; [11]): 83 nM
EC50 (hEP2 [2]; [12]): 0.7 nM
Ki (hEP2 [3]; [13]): 8 nM
EC50 (hEP4 [4]; [14]): > 10000 nM
Ki (hEP4 [5]; [15]): 310 nM

CC(=O)OCCc1cc(Cl)cc(OC[C@@H]2[C@@H](C/C=C\CCCC(=O)O)[C@H](Cl)C[C@H]2O)c1 [(Z)-7-{(1R,2S,3R,5R)-2-[3-(2-Acetoxy-ethyl)-5-chloro-phenoxymethyl]-5-chloro-3-hydroxy-cyclopentyl}-hept-5-enoic acid]
EC50 (hEP2 [1]; [11]): 4990 nM
EC50 (hEP2 [2]; [12]): 18 nM
Ki (hEP2 [3]; [13]): 82 nM

O=C(O)c1ccc(CCC[C@@H]2[C@@H](COc3cc(Cl)cc(Cl)c3)[C@H](O)C[C@H]2Cl)s1 [drawing 35, 5-{3-[(1R,2S,3R,5R)-5-Chloro-2-(3,5-dichloro-phenoxymethyl)-3-hydroxy-cyclopentyl]-propyl}-thiophene-2-carboxylic acid]
EC50 (hEP2 [1]; [11]): 7010 nM
EC50 (hEP2 [2]; [12]): 0.12 nM
Ki (hEP2 [3]; [13]): 2 nM
EC50 (hEP4 [4]; [14]): > 10000 nM
Ki (hEP4 [5]; [15]): 366 nM

O=C(O)c1ccc(CCC[C@@H]2[C@@H](COc3cc(Cl)cc(CO)c3)[C@H](O)C[C@H]2Cl)s1 [drawing 36, 5-{3-[(1R,2S,3R,5R)-5-Chloro-2-(3-chloro-5-hydroxymethyl-phenoxymethyl)-3-hydroxy-cyclopentyl]-propyl}-thiophene-2-carboxylic acid]
EC50 (hEP2 [1]; [11]): 3280 nM
EC50 (hEP2 [2]; [12]): 0.26 nM
Ki (hEP2 [3]; [13]): 3 nM
EC50 (hEP4 [4]; [14]): > 10000 nM
